Source: patent US7034051B2, “Fused bicyclic carboxamide derivatives and methods of their use” (Adolor Corporation, priority 2003, dated 2006)

Tests used:
[1] = biological target: T1, cloned human δ opioid receptor (Homo sapiens, UniProt P41143); assay: In vitro binding assay, inhibition of [3H]diprenorphine binding to cloned human δ opioid receptor
T1 construct: expressed in transfected cells
Protocol: IC50 values were obtained by nonlinear analysis of the data using GraphPad Prism version 3.00 for Windows (GraphPad Software, San Diego). Ki values were obtained by Cheng-Prusoff corrections of IC50 values.
After incubation at room temperature for one hour, the samples were filtered through GF/B filters that had been presoaked in a solution of 0.5% (w/v) polyethylenimine and 0.1% (w/v) bovine serum albumin in water. The filters were rinsed 4 times with 1 mL of cold 50 mM Tris HCl, pH 7.8 and radioactivity remaining on the filters determined by scintillation spectroscopy. Nonspecific binding was determined by the minimum values of the titration curves and was confirmed by separate assay wells containing 10 μM naloxone.
To determine the equilibrium dissociation constant for the inhibitors (Ki), radioligand bound (cpm) in the presence of various concentrations of test compounds was measured. The concentration to give half-maximal inhibition (EC50) of radioligand binding was determined from a best nonlinear regression fit to the following equation,
The nonlinear regression fit was performed using the program Prism® (GraphPad Software, San Diego, Calif.). The Ki values were then determined from the EC50 values by the following equation, […]

[2] = test system: formalin-induced flinching in rats; assay: In vivo formalin-induced nociception assay; set-up: species or system rat; details: dose of 300 μg, i.paw
Source text: Administration of formalin into the paw results in a localized inflammation and a pain response that is moderate in intensity and continuous in duration. Unlike many other assays of nociception, the formalin assay measures tonic pain that is a result of tissue injury, and therefore is a model which is more relevant to clinical pain states in humans (see Tjolsen et al., Pain 51: 5–17, 1992). In the rat the response to formalin-induced pain consists of spontaneous flinching behavior, characterized by paw lifting and paw shaking, and a rapid vibration of the paw after drawing it under the body. […] The early or acute phase lasts from 0–5 minutes post-formalin and is followed by a quiescent period lasting approximately 15 minutes. The tonic phase occurs from 20–35 minutes following formalin injection and is the interval where the number of flinching responses is maximal. […]
Inflammation is induced by subcutaneous injection of […] of a 5% formalin solution into the dorsal surface of the right hind paw of male Sprague-Dawley rats weighing 70–90 g. Injections of drug are given into the dorsal surface of the paw prior to formalin injection, and flinching behavior is quantitated by counting the number of responses that occur during the tonic phase of pain, lasting from 20–35 min after formalin injection. […]

T1 sequence (P41143 whole entry): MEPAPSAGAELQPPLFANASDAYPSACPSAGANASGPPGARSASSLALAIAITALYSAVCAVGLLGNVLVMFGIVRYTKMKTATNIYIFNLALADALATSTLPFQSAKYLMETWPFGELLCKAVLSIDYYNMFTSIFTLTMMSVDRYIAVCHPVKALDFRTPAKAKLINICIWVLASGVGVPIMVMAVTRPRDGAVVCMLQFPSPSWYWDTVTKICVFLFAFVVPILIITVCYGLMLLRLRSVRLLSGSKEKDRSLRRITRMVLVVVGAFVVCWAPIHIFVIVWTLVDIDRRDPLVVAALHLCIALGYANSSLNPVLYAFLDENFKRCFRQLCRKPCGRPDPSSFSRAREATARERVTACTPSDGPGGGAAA

In the case of `COC(=O)NCc1ccc2c(c1)CC[C@H](C(=O)N(C)[C@H](CN1CC[C@H](O)C1)c1ccccc1)O2` [Example 52, (2-{[2-({S}-3-Hydroxy-pyrrolidin-1-yl)-{S}-1-phenyl-ethyl]-(R)-methyl-carbamoyl}-chroman-6-ylmethyl)-carbamic acidmethyl ester], the Ki [1] is reported as 1600 nM and the “% A (percent antagonism of formalin-induced flinching)” value [2] is reported as 95%.
